In US7560547B2, “Hydroxyalkyl cyclic diamine compounds” (Kowa Co., Ltd., priority 2002, dated 2009):

Row | SMILES | melting point [°C]
1 | Cc1cc(Br)c(N)c(Br)n1 [Example 2, 3-amino-2,4-dibromo-6-methylpyridine] | 93 to 94
2 | Cc1cc(Br)c([N+](=O)[O-])c(Br)n1 [Example 1, 2,4-dibromo-6-methyl-3-nitropyridine] | 118 to 120
3 | Cc1cc(Br)c(NC(=O)CBr)c(Br)n1 [Example 3, N-[2,4-dibromo-6-methylpyridin-3-yl]-2-bromoacetamide] | 197 to 199
4 | CSc1cc(C)nc(SC)c1NC(=O)CN1CCN(CCO)CC1 [Example 7, 2-[4-(2-hydroxyethyl)piperazin-1-yl]-N-[2,4-bis(methylthio)-6-methylpyridin-3-yl]acetamide] | 119 to 120
5 | Cc1cc(Cl)c(NC(=O)CBr)c(Cl)n1 [Example 5, N-[2,4-dichloro-6-methylpyridin-3-yl]-2-bromoacetamide] | 184 to 185
